Laboratory results: US9011826B2, “Cosmetic and dermatological formulations including isononyl benzoate” (Evonik Degussa GmbH, priority 2007, dated 2015)

Columns and labels:
[1] = Dissolving power for crystalline UV light protection filters; assay type: physicochemical; conditions: 22° C., percent by weight; for Dissolving power (maximum dissolved amount of UV filter) BP-3: Benzophenone-3 dissolved in the product; for Dissolving power (maximum dissolved amount of UV filter) BEMT: Bis-ethylhexyloxyphenol Methoxyphenyl Triazine dissolved in the product; for Dissolving power (maximum dissolved amount of UV filter) BMDM: Butyl Methoxydibenzoylmethane dissolved in the product; for Dissolving power (maximum dissolved amount of UV filter) EHT: Octyl Triazone dissolved in the product
Source text: Four representative UV-A or UV-B light protection filters were chosen as representatives for testing the dissolving power for crystalline UV light protection filters in isononyl benzoate (Vestinol® INB, Evonik Oxeno GmbH). These were Benzophenone-3 (2-hydroxy-4-methoxy-benzophenone, BP-3), Butyl Methoxydibenzoylmethane (BMDM), Octyl Triazone (2,4,6-trianilino-p-(carbo-2′-ethylhexyl-1′-oxy)-1,3,5-triazine, EHT) and bemotrizinol (Bis-ethylhexyloxyphenol Methoxyphenyl Triazine, BEMT).
For determination of the dissolving power for these […] UV light protection filters, in each case a particular amount (50 g) of one of the compounds according to the invention was initially introduced into the dissolving vessel and temperature-controlled at 22° C. 1 percent by weight of a UV light protection filter was then added and the mixture was stirred until this amount had dissolved completely and homogeneously. This operation was repeated until the maximum amount of the UV light protection filter which can be dissolved had been exceeded. For complete dissolving, a relatively long stirring time of several hours was often necessary at higher concentrations.
Once the maximum concentration had been roughly determined in this manner, the test was repeated with smaller weights of the UV light protection filter for fine determination of the concentration range around this maximum concentration.
The compound Tegosoft® TN (C12-15 Alkyl Benzoate) was used as a reference.

[2] = known solvents (lipids) for this UV-B filter; cited from earlier work

Compound	Dissolving power (maximum dissolved amount of UV filter) BP-3 [1] [%]	Dissolving power (maximum dissolved amount of UV filter) BEMT [1] [%]	Dissolving power (maximum dissolved amount of UV filter) BMDM [1] [%]	Dissolving power (maximum dissolved amount of UV filter) EHT [1] [%]	Maximum amount of the filter dissolved by known solvents [2]
CC(C)CCCCCCOC(=O)c1ccccc1 [Isononyl Benzoate, isononyl benzoate]	21	12	14	6	
CCCCC(CC)COC(=O)c1ccc(Nc2nc(Nc3ccc(C(=O)OCC(CC)CCCC)cc3)nc(Nc3ccc(C(=O)OCC(CC)CCCC)cc3)n2)cc1 (stereo not drawn) [UVINUL™ T 150, 4,4′,4″-(1,3,5-Triazine-2,4,6-triyltriimino)-tris-benzoic acid tris(2-ethylhexyl ester)]					approx. 15 wt. %
C12-15 Alkyl Benzoate [Tegosoft ® TN, reference compound]	15	9	13	4	
